# Where two headings read alike, the source gives them in different places. Peptide text beside a SMILES is read from it. * marks the point of attachment. Cbz = O=C(OCc1ccccc1)*; CH2F = FC*
# How the values were obtained:
# Type in all cases: cell-based
# [1] = system: cancerous cell lines (e.g., HT-29, Hub-7, or OVCAR-8); assay: Cell proliferation assay (CELL-TITER GLO cell viability), Table 1; conditions: 24 h incubation, cell line not stated
# Description: (§1) The activity of a combination of a GPX4 inhibitor (e.g., compound A1, A2, or A3) and a tyrosine kinase inhibitor (e.g., neratinib, regorafenib, or sorafenib) was determined in a cell proliferation assay using cancerous cell lines (e.g., HT-29 (colorectal adenocarcinoma), Hub-7 (hepatocellular carcinoma), or OVCAR-8 (ovarian adenocarcinoma)). Cells of each cell line were seeded in a 96-well tissue culture plate. After incubated overnight, a compound or a combination was added at predetermined concentration(s). After the cells were incubated for 24 h, cell viability was determined using a CELL-TITER GLO® assay. The CELL-TITER GLO® reagent (50 μL) was added to each well and the luminescence was measured by a multimode microplate reader after a brief period of shaking. EC50 values were determined from dose response curves.
# HT-29 cells = assay: Cell viability assay with ferroptosis/apoptosis inhibitor rescue, HT-29 cells (FIGS. 4-6); conditions: GPX4 inhibitor 100 nM + sorafenib C1 3 μM
# Description: as §1
# Huh-7 cells = assay: Cell viability assay with ferroptosis/apoptosis inhibitor rescue, Huh-7 cells (FIGS. 1-3); conditions: GPX4 inhibitor 100 nM + sorafenib C1 3 μM
# Description: as §1
# [2] = GPX4 inhibitor alone, read-out: Inhibition of Cell Proliferation, Monotherapy (EC50)
# [3] = GPX4 inhibitor in combination with C2 (10 μM), read-out: Inhibition of Cell Proliferation, Combination +C2 (10 μM) (EC50)
# [4] = GPX4 inhibitor in combination with C3 (3 μM), read-out: Inhibition of Cell Proliferation, Combination +C3 (3 μM) (EC50)
"EC50 [1, 2] [nM]","EC50 [1, 3] [nM]","EC50 [1, 4] [nM]",SMILES,"Rescue from cell death induced by GPX4 inhibitor A1, A2, or A3 in combination with sorafenib C1 (HT-29 cells)","Rescue from cell death induced by GPX4 inhibitor A1, A2, or A3 in combination with sorafenib C1 (Huh-7 cells)"
8000,57,970,"COC(=O)c1ccc(C2c3[nH]c4ccccc4c3C[C@H](C(=O)OC)N2C(=O)CCl)cc1 (stereo partly drawn) [A1, methyl (3R)-2-(2-chloroacetyl)-2,3,4,9-tetrahydro-1-(4-(methoxycarbonyl)phenyl)-1H-pyrido[3,4-b]indole-3-carboxylate]",,
22500,97,1300,"C#CC(=O)N1C(c2ccc(C(=O)OC)cc2)c2[nH]c3ccccc3c2C[C@@H]1CO (stereo partly drawn) [A2, methyl 4-((3R)-3-(hydroxymethyl)-2-propioloyl-2,3,4,9-tetrahydro-1H-pyrido[3,4-b]indol-1-yl)benzoate]",,
5700,207,1800,"C#CC(=O)N(c1ccc(OC)c(Cl)c1)C(C(=O)NC(C)(C)C)c1ccc(N)cc1 (stereo not shown) [A3, N-(1-(4-aminophenyl)-2-(tert-butylamino)-2-oxoethyl)-N-(3-chloro-4-methoxyphenyl)propiolamide]",,
,,,"CCOC(=O)c1ccc(NC2CCCCC2)c(N)c1 [Fer-1, ferrostatin-1]",able to rescue,able to rescue
,,,"COC(=O)C[C@H](NC(=O)[C@H](C)NC(=O)[C@@H](NC(=O)OCc1ccccc1)C(C)C)C(=O)CF [ZVAD, Z-VAD-FMK] (Cbz-Val-Ala-Asp(OMe)-CH2F)",could not,could not
